Activity calls are given as the source filed them. The rule behind the calls is not given here.

Series [1] can be described thus: Cytotoxicity against mouse MC3T3-E1 cells at 30 uM after 6 days. Format: cell-based. The conditions noted are these: mc3t3-e1, 144 h.
Another series has as its system RAW264. Nature of the series: Induction of osteoclast differentiation in mouse RAW264 cells assessed as TRAP activity. It is filed as functional, cell-based.
The subject of series [2] is MC3T3-E1. Nature of the series: Induction of cells differentiation in mouse MC3T3-E1 cells assessed as increase in osteocalcin production after 14 days by EIA. It is filed as functional, cell-based.
Series [3] concerns MC3T3-E1. The series can be described thus: Induction of osteogenesis in mouse MC3T3-E1 cells assessed as cell differentiation at 30 uM after 6 days by alkaline phosphatase activity assay. Format: functional, cell-based.
In series [4] the test system is MC3T3-E1. The series can be described thus: Induction of cells differentiation in mouse MC3T3-E1 cells assessed as increase in mineralization after 14 days by Alizarin Red S staining. It is filed as functional, cell-based.
Series [5] has as its system MC3T3-E1. The series can be described thus: Induction of osteogenesis in mouse MC3T3-E1 cells assessed as increase in alkaline phosphatase activity after 6 days. It is filed as functional, cell-based.
For series [6], the system named is MC3T3-E1. The series can be described thus: Induction of osteogenesis in mouse MC3T3-E1 cells assessed as increase in alkaline phosphatase activity at 30 uM after 6 days in presence of 0.1 uM LDN-193289 BMP receptor kinase inhibitor. It is filed as functional, cell-based.
Series [7] deals with MC3T3-E1. The series can be described thus: Induction of osteogenesis in mouse MC3T3-E1 cells assessed as increase in alkaline phosphatase activity at 30 uM after 6 days in presence of 5 uM SB203580 p38 MAPK inhibitor. Format: functional, cell-based.
In series [8] the test system is MC3T3-E1. Nature of the series: Induction of osteogenesis in mouse MC3T3-E1 cells assessed as increase in alkaline phosphatase activity at 30 uM after 6 days in presence of 50 ng/ml noggin BMP antagonist. Format: functional, cell-based.
For another series, the species on record is Mus musculus. The series can be described thus: Induction of osteogenesis in mouse primary calvarial cells assessed as increase in alkaline phosphatase activity measured by ALP staining after 14 days. It is filed as functional.

On to `Oc1ccc(CCCC[C@@H](O)CCc2ccc(O)cc2)cc1`, for which the Activity result in series [1] is on record as “Toxic”. Moreover, the outcome in the series with RAW264 was inactive.

As for `OC[C@H]1O[C@@H](Oc2ccc3cc2Oc2ccc(cc2)CCCC[C@@H](O)CC3)[C@H](O)[C@@H](O)[C@@H]1O` [ACEROSIDE B1], the outcome in the series with MC3T3-E1 [2] and in the series with MC3T3-E1 [3] was Active. In addition, the Activity result in series [1] is “Non-toxic”; in the series with MC3T3-E1 [4], “Dose-dependent effect”. Moreover, in the series with RAW264, the outcome was inactive.

`Oc1cc(O)c2c(c1)O[C@H](c1ccc(O)c(O)c1)[C@@H](O)C2` [CIANIDANOL]: the Activity entry in series [1] is given as “Non-toxic”. Besides, the outcome with RAW264 was inactive.

For `OC[C@H]1O[C@H](Oc2ccc3cc2Oc2ccc(cc2)CC[C@@H](O)CCCC3)[C@H](O)[C@@H](O)[C@@H]1O` [ACEROSIDE I], the result with MC3T3-E1 [2] and in the series with MC3T3-E1 [3] was Active. Also, the Activity result in series [1] was “Non-toxic”; in the series on MC3T3-E1 [4] it was “Dose-dependent effect”. For the same molecule, the result with RAW264 was inactive.

For the molecule `Oc1ccc2cc1Oc1ccc(cc1)CCCC[C@@H](O)CC2`, the result in the series with MC3T3-E1 [2] and in the series with MC3T3-E1 [3] was Active. In addition, the figures for the Activity entry (in series [1]; in the series on MC3T3-E1 [4]) were “Non-toxic” and “Dose-dependent effect”, respectively. For the same molecule, in the series with RAW264, the outcome was inactive.

Consider `Oc1ccc2cc1Oc1ccc(cc1)CC[C@H](O)CCCC2` [ACEROGENIN A], for which the Activity result in the series with MC3T3-E1 [5] was “Dose-dependent effect”; in series [1], “Non-toxic”; in the series with MC3T3-E1 [4] it was “Dose-dependent effect”. The result with MC3T3-E1 [6], in the series with MC3T3-E1 [7], in the series with MC3T3-E1 [8] and in the series on RAW264 was inactive. The outcome in the series with MC3T3-E1 [2], in the series on MC3T3-E1 [3] and in the series filed under Mus musculus was Active.

On to `OC[C@@]1(O)CO[C@@H](OC[C@H]2O[C@@H](O[C@@H]3CCCCc4ccc(O)c(c4)Oc4ccc(cc4)CC3)[C@H](O)[C@@H](O)[C@@H]2O)[C@@H]1O` [ACEROSIDE III], for which, in the series on MC3T3-E1 [3], the result was Active. Moreover, the Activity entry in series [1] was “Non-toxic”. Also, the outcome in the series on RAW264 was inactive.

For the molecule `C[C@H](O)CCc1ccc(O)cc1`, the outcome in the series with MC3T3-E1 [3] and in the series with RAW264 was inactive. The Activity entry in [1] was “Non-toxic”.

(Values after ChEMBL document CHEMBL1777809, “Osteogenic activity of diphenyl ether-type cyclic diarylheptanoids derived from Acer nikoense” (Bioorg Med Chem Lett, 2011).)
